These results are taken from US20090239845A1, “PYRAZOLE COMPOUNDS AS PROSTAGLANDIN RECEPTORS LIGANDS” (priority 2005, published 2009).

Counter-ions that a name gives are not always drawn. Where only a bound is given, the exact number is not on record here.

One assay has as its target T1, human prostanoid EP1 receptor (Homo sapiens, UniProt P34995).
T1 construct: expressed in transfected cells; host or cells: CHO-K1 (membrane fraction)
T1 sequence (P34995 1-402): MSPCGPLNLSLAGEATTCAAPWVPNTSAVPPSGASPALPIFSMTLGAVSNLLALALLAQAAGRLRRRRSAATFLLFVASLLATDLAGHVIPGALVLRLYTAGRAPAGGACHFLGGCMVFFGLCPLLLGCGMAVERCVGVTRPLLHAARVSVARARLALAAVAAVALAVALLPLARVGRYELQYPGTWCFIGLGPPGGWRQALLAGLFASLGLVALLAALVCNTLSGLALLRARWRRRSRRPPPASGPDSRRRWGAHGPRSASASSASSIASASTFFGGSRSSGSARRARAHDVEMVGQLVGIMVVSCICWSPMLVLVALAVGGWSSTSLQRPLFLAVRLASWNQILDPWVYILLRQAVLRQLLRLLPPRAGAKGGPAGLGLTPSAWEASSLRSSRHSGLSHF
Put plainly: Binding assay for the human prostanoid EP1 receptor (competition with [3H]-PGE2). The note with it: negative logarithm10 of the IC50; competition with [3H]-PGE2, CHO-K1 cell membranes; averages of a number of experiments; read-out: pIC50 value (converted). The protocol:
Competition assay using [^3H]-PGE2.
Compound potencies are determined using a radioligand binding assay. In this assay compound potencies are determined from their ability to compete with tritiated prostaglandin E2 ([^3H]-PGE2) for binding to the human EP1 receptor.
This assay utilises Chinese hamster ovary-K1 (CHO-K1) cells into which a stable vector containing the EP1 cDNA has previously been transfected. Cells are cultured in suitable flasks containing culture medium such as DMEM:F-12 supplemented with 10% v/v foetal calf serum, 2 mM L-glutamine, 0.25 mg/ml geneticin, 10 μg/ml puromycin and 10 μM indomethacin.
Cells are detached from the culture flasks by incubation in calcium and magnesium free phosphate buffered saline containing 1 mM disodium ethylenediaminetetraacetic acid (Na2EDTA) and 10 μM indomethacin for 5 min. The cells are isolated by centrifugation at 250×g for 5mins and suspended in an ice cold buffer such as 50 mM Tris, 1 mM Na2EDTA, 140 mM NaCl, 10 μM indomethacin (pH 7.4). The cells are homogenised using a Polytron tissue disrupter (2×10s burst at full setting), centrifuged at 48,000×g for 20mins and the pellet containing the membrane fraction is washed (optional) three times by suspension and centrifugation at 48,000×g for 20mins. The final membrane pellet is suspended in an assay buffer such as 10 mM 2-[N-morpholino]ethanesulphonic acid, 1 mM Na2EDTA, 10 mM MgCl2 (pH 6). Aliquots are frozen at −80° C. until required.
For the binding assay the cell membranes, competing compounds and [^3H]-PGE2 (3 nM final assay concentration) are incubated in a final volume of 100 μl for 30 min at 30° C. All reagents are prepared in assay buffer. Reactions are terminated by rapid vacuum filtration over GF/B filters using a Brandell cell harvester. The filters are washed with ice cold assay buffer, dried and the radioactivity retained on the filters is measured by liquid scintillation counting in Packard TopCount scintillation counter.
The data are analysed using non linear curve fitting techniques to determine the concentration of compound producing 50% inhibition of specific binding (IC50).
Take `Cc1cc(NC(=O)OC(C)C)nn1Cc1cc(Br)ccc1OCc1ccc(F)cc1F` [Example 7, 1-Methylethyl {1-[(5-bromo-2-{[(2,4-difluorophenyl)methyl]oxy}phenyl)methyl]-5-methyl-1H-pyrazol-3-yl}carbamate]: the IC50 was no more than 10 nM. In the case of `Cc1cc(NC(=O)OC(C)(C)C)nn1Cc1cc(Br)ccc1OCc1ccc(Cl)cc1Cl` [Example 8, 1,1-Dimethylethyl {1-[(5-bromo-2-{[(2,4-dichlorophenyl)methyl]oxy}phenyl)methyl]-5-methyl-1H-pyrazol-3-yl}carbamate], the IC50 was no more than 10 nM. On to `Cc1cc(NC(=O)OC2CCOCC2)nn1Cc1cc(Br)ccc1OCc1ccc(Cl)cc1Cl` [Example 30, Tetrahydro-2H-pyran-4-yl {1-[(5-bromo-2-{[(2,4-dichlorophenyl)methyl]oxy}phe-nyl)methyl]-5-methyl-1H-pyrazol-3-yl}carbamate], for which the IC50 was no more than 10 nM. For the compound `Cc1cc(NC(=O)CC(C)C)nn1Cc1cc(Cl)ccc1OCC(C)C` [Example 76, N-[1-({5-Chloro-2-[(2-methylpropyl)oxy]phenyl}methyl)-5-methyl-1H-pyrazol-3-yl]-3-methylbutanamide], the IC50 was no more than 10 nM. In the case of `Cc1cc(NC(=O)CC(C)(C)C)nn1Cc1cc(Cl)ccc1OCc1ccccc1` [Example 109, N-[1-({5-Chloro-2-[(phenylmethyl)oxy]phenyl}methyl)-5-methyl-1H-pyrazol-3-yl]-3,3-dimethylbutanamide], the IC50 is no more than 10 nM. In the case of `Cc1cc(NC(=O)C2CCCCC2)nn1Cc1cc(Cl)ccc1OCc1ccccc1` [Example 110, N-[1-({5-Chloro-2-[(phenylmethyl)oxy]phenyl}methyl)-5-methyl-1H-pyrazol-3-yl]cyclohexanecarboxamide], the IC50 is no more than 10 nM. For the compound `Cc1cc(NC(=O)Cc2ccccn2)nn1Cc1cc(Cl)ccc1OCc1ccc(Cl)cc1F` [Example 118, N-{1-[(5-Chloro-2-{[(4-chloro-2-fluorophenyl)methyl]oxy}phenyl)methyl]-5-methyl-1H-pyrazol-3-yl}-2-(2-pyridinyl)acetamide], the IC50 was no more than 10 nM. The same measure, in the same setting: in the case of `Cc1cc(NC(=O)CC(C)(C)C)nn1Cc1cc(Cl)ccc1OCc1ccc(F)cc1F` [Example 132, N-{1-[(5-Chloro-2-{[(2,4-difluorophenyl)methyl]oxy}phenyl)methyl]-5-methyl-1H-pyrazol-3-yl}-3,3-dimethylbutanamide] it was no more than 10 nM.

The target of a further assay is T2, human EP1 receptor (Homo sapiens, UniProt P34995).
T2 construct: expressed in transfected cells; host or cells: CHO-K1
T2 sequence (P34995 1-402): T1 sequence (P34995 1-402)
Put plainly: human EP1 calcium mobilisation assay. In kind it is cell-based. The note with it: negative logarithm10 of the antagonist dissociation constant; CHO-K1 cells, PGE2; free bases or sodium salts; averages of a number of experiments; read-out: functional pKi value (converted). On the procedure: Briefly, the antagonist properties of compounds are assessed by their ability to inhibit the mobilisation of intracellular calcium ([Ca^2+]i) in response to activation of EP1 or EP3 receptors by the natural agonist hormone prostaglandin E2 (PGE2). Increasing concentrations of antagonist reduce the amount of calcium that a given concentration of PGE2 can mobilise. The net effect is to displace the PGE2 concentration-effect curve to higher concentrations of PGE2. The amount of calcium produced is assessed using a calcium-sensitive fluorescent dye such as Fluo-4, AM and a suitable instrument such as a Fluorimetric Imaging Plate Reader (FLIPR). Increasing amounts of [Ca^2+]i produced by receptor activation increase the amount of fluorescence produced by the dye and give rise to an increasing signal. The signal may be detected using the FLIPR instrument and the data generated may be analysed with suitable curve-fitting software.
The human EP1 or EP3 calcium mobilisation assay (hereafter referred to as ‘the calcium assay’) utilises Chinese hamster ovary-K1 (CHO-K1) cells into which a stable (pCIN; BioTechniques 20 (1996): 102-110) vector containing either EP1 or EP3 cDNA has previously been transfected. Cells are cultured in suitable flasks containing culture medium such as DMEM:F-12 supplemented with 10% v/v foetal calf serum, 2 mM L-glutamine, 0.25 mg/ml geneticin, 100 μM flurbiprofen and 10 μg/ml puromycin.
For assay, cells are harvested using a proprietary reagent that dislodges cells such as Versene. Cells are re-suspended in a suitable quantity of fresh culture media for introduction into a 384-well plate. Following incubation for 24 hours at 37° C. the culture media is replaced with a medium containing Fluo-4 and the detergent pluronic acid, and a further incubation takes place. Concentrations of compounds are then added to the plate in order to construct concentration-effect curves. This may be performed on the FLIPR in order to assess the agonist properties of the compounds. Concentrations of PGE2 are then added to the plate in order to assess the antagonist properties of the compounds.
The data so generated may be analysed by means of a computerised curve-fitting routine. The concentration of compound that elicits a half-maximal inhibition of the calcium mobilisation induced by PGE2 (plC50) may then be estimated.
Background: Calcium flux is commonly read through the fluorescence of an indicator in the cells.
Turning to `Cc1cc(NC(=O)c2c(F)cc(CNC(C)C)cc2F)nn1Cc1cc(Cl)ccc1OCC(C)C` [Example 440, N-[1-({5-chloro-2-[(2-methylpropyl)oxy]phenyl}methyl)-5-methyl-1H-pyrazol-3-yl]-2,6-difluoro-4-{[(1-methylethyl)amino]methyl}benzamide hydrochloride], the Ki was greater than 1000 nM.

As to `Cc1cc(-c2cnc(-n3cccn3)[nH]2)nn1Cc1cc(Cl)ccc1OCc1ccccc1` [Example 481, 1-({5-Chloro-2-[(phenylmethyl)oxy]phenyl}methyl)-5-methyl-3-[2-(1H-pyrazol-1-yl)-1H-imidazol-4-yl]-1H-pyrazole hydrochloride], the Ki is greater than 1000 nM. With `Cc1cc(-c2cnc(-c3cnccn3)[nH]2)nn1Cc1cc(Cl)ccc1OCc1ccccc1` [Example 482, 2-{4-[1-({5-chloro-2-[(phenylmethyl)oxy]phenyl}methyl)-5-methyl-1H-pyrazol-3-yl]-1H-imidazol-2-yl}pyrazine], the Ki is greater than 1000 nM. With `Cc1cc(-c2cnc(-c3ccncc3)[nH]2)nn1Cc1cc(Cl)ccc1OCc1ccccc1` [Example 483, 4-{4-[1-({5-Chloro-2-[(phenylmethyl)oxy]phenyl}methyl)-5-methyl-1H-pyrazol-3-yl]-1H-imidazol-2-yl}pyridine hydrochloride], the Ki is greater than 1000 nM. For `Cc1cc(-c2cnc(N3CCOCC3)[nH]2)nn1Cc1cc(Cl)ccc1OCc1ccccc1` [Example 485, 4-{4-[1-({5-Chloro-2-[(phenylmethyl)oxy]phenyl}methyl)-5-methyl-1H-pyrazol-3-yl]-1H-imidazol-2-yl}morpholine dihydrochloride], the Ki is greater than 1000 nM.
